Patent US10189796B2, “[4-(1,3,3-trimethyl-2-oxo-3,4-dihydro-1H-quinoxalin-7-yl)phenoxy]ethyloxy compound or salt thereof” (SANTEN PHARMACEUTICAL CO., LTD., priority 2015, dated 2019)

Key:
[1] = tested on: VEGF-induced retinal elevated vascular permeability model of rabbits; assay: Retinal vascular permeability model evaluation test; format: in vivo, rabbit; conditions: 2% 50 μL/base agent A, intravitreal once
Description: In order to evaluate the inhibitory effect of the present compounds on VEGF-induced retinal vascular permeability, the inhibitory effect of the present compound on retinal vascular permeability in a VEGF-induced retinal elevated vascular permeability model of rabbits was evaluated. Incidentally, this effect was evaluated by calculating a leaked amount of the fluorescent dye of the base agent administered group (non-induced group), a leaked amount of the fluorescent dye of the base agent administered group (control group) and a leaked amount of the fluorescent dye of the test compound administered group.
To the test compound was added 0.01% Polysorbate 80/0.5% sodium carboxymethyl cellulose/PBS (hereinafter referred to as “base agent A”.), whereby 2% (W/V) or 8% (W/V) of the test compound suspension was prepared. Or else, to the test compound was added PEG400 (hereinafter referred to as “base agent B”.), whereby 6% (W/W) of the test compound solution was prepared.
VEGF solution: humanVEGF165 was dissolved in PBS to prepare 50 μg/mL of VEGF solution.
• 1) A mixed solution (1 mL/kg) of 5% ketamine hydrochloride injection solution and 2% xylazine hydrochloride injection solution with the ratio of 7:1 was intramuscularly administered to rabbits (Dutch male rabbits), and the rabbits were anesthetized. • 2) Tropicamide-phenylephrine hydrochloride ophthalmic solution (trade name: Midlin P) was eye dropped to maintain pupillary mydriasis, and then, the VEGF solution was intravitreally administered. Incidentally, PBS was intravitreally administered to the base agent administration group (non-induced group). • 3) Fluorescein was intravenously administered 2 days after intravitreal administration of VEGF. Two hours after the intravenous administration of fluorescein, an amount of the leaked fluorescent dye in the vitreous body was measured by using a fluorophotometer. (Test Method) • 1) One week before or 4 weeks before VEGF-induction, 50 μL of the test compound suspension (prepared by the base agent A) was intravitreally administered once, or 5 μL of the test compound solution (prepared by the base agent B) was intravitreally administered once. Incidentally, in the base agent administered group (non-induced group) and the base agent administered group (control group), the base agent A was used in place of the test compound suspension, or the base agent B was used in place of the test compound solution. • 2) Inhibition ratio of elevated retinal vascular permeability was calculated according to the following calculation formula. (Calculation Formula) Inhibitory ratio (%) on elevated retinal vascular permeability of the test compound administered group=100×{1−(average value of a leaked fluorescent dye amount in the test compound administered group−average value of a leaked fluorescent dye amount in the base agent administered group (non-induced group))/(average value of a leaked fluorescent dye amount in the base agent administered group (control group)−average value of a leaked fluorescent dye amount of the base agent administered group (non-induced group))}

[2] = tested on: TNFα production in rat whole blood; assay: TNFα production inhibitory action evaluation test (LPS stimulation ex vivo, ELISA); format: cell-based; conditions: 20 hours, 200 μM test compound solution 10 μL/well, DEX treated group = 100, read-out: TNFα production inhibitory ratio (% DEX)
Description: In order to evaluate an action of the present compound as a GR agonist, a TNFα production inhibitory action in rat whole blood after LPS stimulation ex vivo was investigated. For the measurement of the TNFα production amount, the ELISA method (manufactured by R&D Systems, Cat No. RTA00) was used, and a procedure was carried out according to the protocol attached thereto. Hereinafter, the specific method will be described.
LPS solution: LPS was dissolved in PBS(−) and diluted with RPMI 1640 to prepare an LPS solution with a concentration of 2 μg/mL.
After the test compound was dissolved in dimethylsulfoxide, the solution was diluted with PBS(−) to prepare 200 μM of a test compound solution. In addition, DEX was similarly dissolved to prepare 200 μM of a DEX solution, and a TNFα production inhibitory ratio of DEX was measured, and used for calculation of Efficacy (% DEX).
• 1) Blood was collected from 3 to 5 rats using an injection syringe treated with heparin from the abdominal aorta under isoflurane anesthesia. The rats confirmed death after lething the whole blood. • 2) The blood of 3 to 5 rats pooled in a 96-well round bottom culture plate was seeded at each 180 μL/well. • 3) It was cultured (37° C., 5% CO2, 95% air) for about 1 hour. • 4) The test compound solution was added each 10 μL/well, and cultured for 1 hour. • 5) LPS solution was added each 10 μL/well. • 6) The sample in which 2% dimethylsulfoxide-containing PBS(−) was added with each 10 μL/well in place of each test compound solution, and RPMI 1640 was added with each 10 μL/well in place of the LPS solution was made a negative control. • 7) The sample in which 2% dimethylsulfoxide-containing PBS(−) was added with each 10 μL/well in place of each test compound solution was made a positive control. • 8) After completion of 20 hours cultivation, the supernatant was recovered and the amount of TNFα released in the supernatant was measured by using an ELISA Kit. • 9) The TNFα production inhibitory ratio was calculated according to the following calculation formula. (Calculation of TNFα Production Inhibitory Ratio)
TNFα production inhibitory ratio (%) was calculated according to the following formula. TNFα production inhibitory ratio (%)=100×{1−(TNFα production amount of each test compound solution−average value of TNFα production amount of negative control group)/(average value of TNFα production amount of positive control group−average value of TNFα production amount of negative control group)}(%)
Further, a TNFα production inhibitory ratio (Efficacy (% DEX)) when the DEX treated group was made 100 was calculated. Efficacy (% DEX)=100×{(average value of TNFα production inhibitory ratio of each test compound solution)/(average value of TNFα production inhibitory ratio of DEX treated group)}(%)

SMILES | Inhibitory ratio (%) on elevated vascular permeability ([1]; 1 week before VEGF induction) | Inhibitory ratio (%) on elevated vascular permeability ([1]; 4 weeks before VEGF induction) | Emax [2]
COc1cc(OC[C@@H](O)CC#N)ccc1-c1ccc2c(c1COc1cc(F)ccc1C)N(C)C(=O)C(C)(C)N2 [Compound 5-2, (S)-7-[4-(3-cyano-2-hydroxypropyl)oxy-2-methoxyphenyl]-8-(5-fluoro-2-methyl-phenoxymethyl)-1,3,3-trimethyl-3,4-dihydro-1H-quinoxalin-2-one] | 96% | 91% | > 99%
COc1cc(OC[C@@H](O)CCO)ccc1-c1ccc2c(c1COc1cc(F)ccc1C)N(C)C(=O)C(C)(C)N2 [Compound 2-1, (S)-7-[4-(2,4-dihydroxybutyl)oxy-2-methoxyphenyl]-8-(5-fluoro-2-methyl-phenoxymethyl)-1,3,3-trimethyl-3,4-dihydro-1H-quinoxalin-2-one] |  |  | 97%
COCOc1ccc(-c2ccc3c(c2COc2cc(F)ccc2C)N(C)C(=O)C(C)(C)N3)c(OC)c1 [Control compound F, 8-(5-fluoro-2-methylphenoxymethyl)-7-(2-methoxy-4-methoxymethoxyphenyl)-1,3,3-trimethyl-3,4-dihydro-1H-quinoxalin-2-one, reference compound] |  |  | 69%
CCCC(=O)Oc1ccc(-c2ccc3c(c2COc2cc(F)ccc2C)N(C)C(=O)C(C)(C)N3)c(OC)c1 [Control compound D, 7-(4-butyryloxy-2-methoxyphenyl)-8-(5-fluoro-2-methylphenoxymethyl)-1,3,3-trimethyl-3,4-dihydro-1H-quinoxalin-2-one, reference compound] |  | 38% | 
COc1cc(OC[C@H](C)O)ccc1-c1ccc2c(c1COc1cc(F)ccc1C)N(C)C(=O)C(C)(C)N2 [Compound 1-1, (S)-8-(5-fluoro-2-methylphenoxymethyl)-7-[4-(2-hydroxypropyl)oxy-2-methoxy-phenyl]-1,3,3-trimethyl-3,4-dihydro-1H-quinoxalin-2-one] |  |  | 81%
COc1ccc(-c2ccc3c(c2COc2cc(F)ccc2C)N(C)C(=O)C(C)(C)N3)c(OC)c1 [Control compound E, 7-(2,4-dimethoxyphenyl)-8-(5-fluoro-2-methyl-phenoxymethyl)-1,3,3-trimethyl-3,4-dihydro-1H-quinoxalin-2-one, reference compound] | 47% |  | 0%
COc1ccc(CO)cc1-c1ccc2c(c1COc1cc(F)ccc1C)N(C)C(=O)C(C)(C)N2 [Control compound B, 8-(5-fluoro-2-methylphenoxymethyl)-7-(5-hydroxymethyl-2-methoxyphenyl)-1,3,3-trimethyl-3,4-dihydro-1H-quinoxalin-2-one, reference compound] |  |  | 77%
